13 compounds from ChEMBL document CHEMBL1201862, “PubChem BioAssay data set” (2004) can be followed below.

Molecules are shown by their SMILES.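 Following 48 hours of exposure in 96-well plates, responses at five concentrations were used to interpolate endpoints linearly. Abbreviation: GI50, concentration required for 50% inhibition of growth.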 The source made the active and inactive calls. Rule as the data show it: active = GI50 up to about 1.1 µM and inactive = higher. Some results are limits rather than exact numbers.

Test systems include SF-268; SK-MEL-2; HL-60; M14; IGROV-1; Malme-3M; SK-MEL-5; RXF 393; K562; EKVX; SK-MEL-28; SR; HOP-92; KM12; NCI-H226; HOP-62.
What all share (assay): inhibition of tumour cell growth, NCI panel, 48 h

On to `Cc1nnc(N/N=C(/C(=O)C(C#N)c2ccccc2)C(C#N)c2ccccc2)n1N` (stereo unspecified), for which the GI50 in the experiment on SF-268 was 31 µM (inactive); with SK-MEL-2 it was 5.25 µM (inactive); in the experiment with HL-60, 17.9 µM (inactive); with M14, 16.8 µM (inactive); with IGROV-1, > 58.9 µM (inactive); in the experiment on Malme-3M, 4.18 µM (inactive). The GI50 in the experiment with SK-MEL-5 was 18.3 µM (inactive); in the experiment on RXF 393, 17 µM (inactive); with K562, 3.73 µM (inactive); in the experiment with EKVX it was 51.9 µM (inactive); in the experiment on SK-MEL-28, 20 µM (inactive); in the experiment on SR, 32.3 µM (inactive). The GI50 with HOP-92 is > 100 µM (inactive); in the experiment on KM12, 28.4 µM (inactive); with NCI-H226 it was 28.8 µM (inactive); with HOP-62 it was 50.7 µM (inactive).
Consider `COc1ccc(Cc2nc3ccccc3s2)cc1OC`, for which the GI50 in the experiment with SF-268 is 15.8 µM (inactive); with SK-MEL-2 it was 20.3 µM (inactive); with HL-60, 18.4 µM (inactive); in the experiment with M14 it was 17.5 µM (inactive); with IGROV-1, 18.9 µM (inactive); in the experiment with Malme-3M, 17.1 µM (inactive). For the same compound, the GI50 with SK-MEL-5 is 16.1 µM (inactive); in the experiment on RXF 393, 19.6 µM (inactive); with K562, 20.3 µM (inactive); in the experiment with EKVX, 20.8 µM (inactive); with SK-MEL-28, 18 µM (inactive); in the experiment on SR it was 18.9 µM (inactive). The GI50 in the experiment with HOP-92 is 17.7 µM (inactive); in the experiment with KM12, 17.4 µM (inactive); in the experiment with NCI-H226, 21 µM (inactive); with HOP-62 it was 29.6 µM (inactive).
Take `c1ccc(Nc2nnc(CSc3nc(-c4ccccc4)c(-c4ccccc4)[nH]3)s2)cc1`: the GI50 was 24.4 µM (inactive) in the experiment on SF-268; 19 µM (inactive) with SK-MEL-2; 13.2 µM (inactive) in the experiment with HL-60; 14.7 µM (inactive) in the experiment on M14; 21.3 µM (inactive) in the experiment with IGROV-1; 19.2 µM (inactive) in the experiment with Malme-3M. Also, the GI50 was 15.2 µM (inactive) in the experiment on SK-MEL-5; 19.4 µM (inactive) in the experiment with EKVX; 24.2 µM (inactive) with SK-MEL-28; 20.6 µM (inactive) in the experiment on SR; 11.1 µM (inactive) in the experiment on HOP-92; 21.1 µM (inactive) in the experiment on KM12. In addition, the GI50 with NCI-H226 was 14.9 µM (inactive); in the experiment on HOP-62, 21.1 µM (inactive).
As for `COc1ccc(SS(=O)(=O)c2ccc(OC)cc2)cc1`, the GI50 in the experiment on SF-268 was 17.4 µM (inactive); in the experiment with SK-MEL-2, 36 µM (inactive); in the experiment on HL-60 it was 2.24 µM (inactive); in the experiment on M14 it was 20 µM (inactive); with IGROV-1 it was 10 µM (inactive); in the experiment with Malme-3M, 33.3 µM (inactive). Moreover, the GI50 with SK-MEL-5 was 15.2 µM (inactive); in the experiment with RXF 393, 18.1 µM (inactive); with K562, 21.7 µM (inactive); in the experiment on EKVX it was 21.1 µM (inactive); in the experiment on SK-MEL-28, 19.6 µM (inactive); with SR, 23.1 µM (inactive). For the same compound, the GI50 with HOP-92 was 35.9 µM (inactive); in the experiment with KM12, 16.5 µM (inactive); in the experiment on NCI-H226 it was 23.6 µM (inactive); in the experiment with HOP-62, 23.8 µM (inactive).
In the case of `CCCCCCCCCCCCCCCC(=O)OCCOCCOCCOCCOCCOC(=O)CCCCCCCCCCCCCCC`, the GI50 in the experiment on SF-268, in the experiment on SK-MEL-2, with HL-60, in the experiment on M14, with IGROV-1 and in the experiment on Malme-3M was > 100 µM (inactive) throughout. Moreover, the GI50 in the experiment with SK-MEL-5, in the experiment with RXF 393, in the experiment with K562, in the experiment with EKVX, in the experiment with SK-MEL-28 and in the experiment on SR was > 100 µM (inactive) throughout. Moreover, the GI50 in the experiment on HOP-92, in the experiment on KM12, in the experiment with NCI-H226 and in the experiment with HOP-62 was > 100 µM (inactive) throughout.
`C[C@@H]1C(=O)CC2C(C)(C)CCC[C@]2(C)[C@@]12CC[C@]1(C=COC1)O2` (stereo partly specified): the GI50 in the experiment on SF-268 was 64.7 µM (inactive); with SK-MEL-2 it was 22.7 µM (inactive); in the experiment with HL-60, 18.7 µM (inactive); in the experiment with M14, 29.4 µM (inactive); in the experiment on IGROV-1, 36.9 µM (inactive); in the experiment with Malme-3M it was 27.8 µM (inactive). For the same compound, the GI50 in the experiment on RXF 393 is 16 µM (inactive); in the experiment with K562, 24.3 µM (inactive); in the experiment with EKVX it was 42.9 µM (inactive); with SR it was 22 µM (inactive); with HOP-92 it was 13.8 µM (inactive); in the experiment with KM12, 39.4 µM (inactive). In addition, the GI50 in the experiment with NCI-H226 was 91 µM (inactive); with HOP-62, 50.8 µM (inactive).
Take `COC(=O)c1c[nH]cc1CCc1c[nH]cc1C(=O)OC`: the GI50 with SF-268 was > 100 µM (inactive); in the experiment on SK-MEL-2 it was > 100 µM (inactive); in the experiment on HL-60 it was > 100 µM (inactive); in the experiment on IGROV-1, > 100 µM (inactive); with Malme-3M it was > 100 µM (inactive); in the experiment on RXF 393, 27.2 µM (inactive). For the same compound, the GI50 in the experiment with K562, with EKVX, with SK-MEL-28, in the experiment on SR, in the experiment on HOP-92 and in the experiment with KM12 was > 100 µM (inactive) throughout. The GI50 in the experiment on NCI-H226 and in the experiment on HOP-62 was > 100 µM (inactive) in each case.
As for `O=c1c(O)c(-c2ccccc2)n(O)c2ccc(Cl)cc12`, the GI50 in the experiment on SF-268 is 27.4 µM (inactive); in the experiment with SK-MEL-2 it was 21.5 µM (inactive); in the experiment with HL-60 it was 24.1 µM (inactive); in the experiment with M14 it was 30.8 µM (inactive); with IGROV-1, 29.6 µM (inactive); in the experiment on Malme-3M, 60.1 µM (inactive). In addition, the GI50 in the experiment with SK-MEL-5 was 17.5 µM (inactive); in the experiment on RXF 393, 23.1 µM (inactive); with K562 it was 26.5 µM (inactive); with SK-MEL-28 it was 44 µM (inactive); in the experiment on SR, 28.8 µM (inactive); in the experiment with HOP-92 it was 34.6 µM (inactive). Besides, the figures for the GI50 with KM12, in the experiment on NCI-H226 and with HOP-62 were 31.6 µM (inactive), 19.1 µM (inactive) and 27.9 µM (inactive), respectively.
As for `CC(C)c1cc(OCC(O)CO)cc(C(C)C)c1` (stereo unspecified), the GI50 in the experiment with SF-268, in the experiment on SK-MEL-2, in the experiment on HL-60, in the experiment on M14, with IGROV-1 and in the experiment on Malme-3M was > 100 µM (inactive) throughout. The GI50 in the experiment on SK-MEL-5, with RXF 393, in the experiment on K562, with EKVX, in the experiment with SK-MEL-28 and in the experiment on SR was > 100 µM (inactive) in each case. Further, the GI50 in the experiment with HOP-92, with KM12, with NCI-H226 and with HOP-62 was > 100 µM (inactive) throughout.
With `CCOC(=N)CC(=O)Nc1ccccc1CC`, the GI50 in the experiment with SF-268, with SK-MEL-2, in the experiment with HL-60, in the experiment with M14, in the experiment on IGROV-1 and with Malme-3M was > 100 µM (inactive) in each case. The GI50 with SK-MEL-5, in the experiment with RXF 393, with K562, in the experiment with EKVX, in the experiment with SK-MEL-28 and with SR was > 100 µM (inactive) in each case. Further, the GI50 in the experiment on KM12, in the experiment with NCI-H226 and with HOP-62 was > 100 µM (inactive) throughout.
For `CC(C)(C)C#C[P+](c1ccccc1)(c1ccccc1)c1ccccc1`, the GI50 with SF-268 was 0.203 µM (active); in the experiment on SK-MEL-2 it was 0.409 µM (active); in the experiment with HL-60 it was 0.057 µM (active); in the experiment on M14, 0.225 µM (active); with IGROV-1, 0.578 µM (active); in the experiment on Malme-3M it was 0.349 µM (active). Also, the GI50 in the experiment with SK-MEL-5 is 0.187 µM (active); in the experiment on RXF 393 it was 0.329 µM (active); in the experiment on K562, 0.0498 µM (active); in the experiment with EKVX, 0.566 µM (active); with SK-MEL-28, 0.0728 µM (active); in the experiment with SR, 0.149 µM (active). The GI50 in the experiment on HOP-92 is 0.194 µM (active); in the experiment on KM12 it was 0.238 µM (active); in the experiment on NCI-H226, 0.33 µM (active); with HOP-62, 0.277 µM (active).
As for `CC1=C(C(=O)Nc2ccc([N+](=O)[O-])cc2)C(c2ccc3c(c2)OCO3)C(C(=O)Nc2ccc([N+](=O)[O-])cc2)=C(C)N1`, the GI50 with SF-268 is > 100 µM (inactive); with SK-MEL-2 it was 6.68 µM (inactive); in the experiment on M14, 6.78 µM (inactive); with IGROV-1, 8.41 µM (inactive); with Malme-3M it was 23.9 µM (inactive); in the experiment with RXF 393, 25.3 µM (inactive). Moreover, the GI50 is 4.15 µM (inactive) with K562; 8.2 µM (inactive) with EKVX; 24.9 µM (inactive) in the experiment on SK-MEL-28; 1.98 µM (inactive) in the experiment on SR; 4.08 µM (inactive) in the experiment on HOP-92; 3.8 µM (inactive) with KM12. For the same compound, the results for the GI50 with NCI-H226 and in the experiment with HOP-62 were 14.7 µM (inactive) and 37.6 µM (inactive), respectively.
For `CC1CC(C)C(C(O)CC2CC(=O)N(c3ccccc3)C(=O)C2)C(O)C1` (stereo unspecified), the GI50 in the experiment with SF-268, in the experiment with HL-60, in the experiment on M14, in the experiment with IGROV-1, in the experiment with Malme-3M and with RXF 393 was > 100 µM (inactive) in each case. Further, the GI50 in the experiment on K562, in the experiment on EKVX, in the experiment with SK-MEL-28, in the experiment with SR, with HOP-92 and in the experiment on KM12 was > 100 µM (inactive) each time. The GI50 in the experiment on NCI-H226 and with HOP-62 was > 100 µM (inactive) in each case.
